Patent US7517874B2 (priority 2007, dated 2009)
Like-named read-outs stand apart in the source and are kept apart here.

Legend:
[1] = target: human CB1 receptor (hCB1) (Homo sapiens, UniProt P21554); experiment: cell-based; format: cell-based; details: for +/− HCB1: agonist or inverse agonist at hCB1
Summary of the method: (§1)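 First, cells in IBMX-containing HEPES-buffered HBSS are raised to elevated cAMP with 2-8 μM NKH-477 for 30 min. Data are normalised to the forskolin and forskolin + 1 μM CP55,940 controls.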

[2] = target: T1, rat CB2 receptor (rCB2) (Rattus norvegicus, UniProt Q9QZN9); experiment: cell-based; format: cell-based; details: for +/− RCB2: agonist or inverse agonist at rCB2
T1 sequence (Q9QZN9 1-360): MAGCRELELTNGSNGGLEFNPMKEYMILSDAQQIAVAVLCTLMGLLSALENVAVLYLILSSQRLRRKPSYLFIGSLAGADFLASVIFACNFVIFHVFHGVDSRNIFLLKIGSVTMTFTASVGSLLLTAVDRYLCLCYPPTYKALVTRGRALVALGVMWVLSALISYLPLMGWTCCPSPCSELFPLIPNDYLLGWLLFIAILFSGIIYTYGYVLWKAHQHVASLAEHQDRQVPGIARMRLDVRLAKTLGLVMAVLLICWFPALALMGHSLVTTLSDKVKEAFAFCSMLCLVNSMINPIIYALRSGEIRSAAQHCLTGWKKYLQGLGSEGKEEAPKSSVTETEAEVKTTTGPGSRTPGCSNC
Summary of the method: as §1

[3] = groups >100 nM-10 μM and >10 μM, cAMP, CHO-K1 hCB1, read-out: EC50 HCB1

Sequence of human CB1 receptor (hCB1) (P21554 whole entry): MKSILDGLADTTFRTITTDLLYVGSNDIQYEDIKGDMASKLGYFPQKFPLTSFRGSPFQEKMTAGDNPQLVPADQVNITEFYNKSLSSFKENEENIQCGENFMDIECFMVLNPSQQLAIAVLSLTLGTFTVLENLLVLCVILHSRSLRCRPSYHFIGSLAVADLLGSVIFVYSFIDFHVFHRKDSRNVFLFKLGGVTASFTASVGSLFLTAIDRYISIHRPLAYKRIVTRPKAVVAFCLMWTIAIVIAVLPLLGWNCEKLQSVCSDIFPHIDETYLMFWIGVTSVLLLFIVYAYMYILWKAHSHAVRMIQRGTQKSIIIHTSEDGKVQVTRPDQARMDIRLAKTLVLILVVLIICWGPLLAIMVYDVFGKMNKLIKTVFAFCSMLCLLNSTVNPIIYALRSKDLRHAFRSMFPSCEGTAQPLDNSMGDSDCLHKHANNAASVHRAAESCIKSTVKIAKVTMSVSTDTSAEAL

Row | Structure (SMILES) | EC50 [1] | +/− RCB2 [2] | EC50 [2] | also measured
1 | CC(C)CCNC(=O)c1nc(-c2ccc(Cl)cc2)n2c1CN(C(=O)C1CC1)CC2 [Compound 131, 3-(4-chlorophenyl)-7-(cyclopropanecarbonyl)-N-isopentyl-5,6,7,8-tetrahydroimidazo[1,5-a]pyrazine-1-carboxamide] | > 10000 nM | − |  | 
2 | CNC(=O)[C@@H](NC(=O)c1nc(-c2ccccc2-c2ccccc2)n2c1CN(C)CCC2)C(C)(C)C [Compound 413, (S)-3-(biphenyl-2-yl)-N-(3,3-dimethyl-1-(methylamino)-1-oxobutan-2-yl)-8-methyl-6,7,8,9-tetrahydro-5H-imidazo[1,5-a][1,4]diazepine-1-carboxamide] | > 10000 nM |  | > 10000 nM | 
3 | CNC(=O)[C@@H](NC(=O)c1nc(C(C)c2ccccc2)n2c1CN(C)CCC2)C(C)(C)C (stereo partly drawn) [Compound 506, N-((S)-3,3-dimethyl-1-(methylamino)-1-oxobutan-2-yl)-8-methyl-3-(1-phenylethyl)-6,7,8,9-tetrahydro-5H-imidazo[1,5-a][1,4]diazepine-1-carboxamide] |  | + |  | +/− HCB1 [1]: +
4 | Cc1cnc(CNC(=O)c2nc(-c3ccccc3)n3c2CN(C)CC3)cn1 [Compound 237, 7-methyl-N-((5-methylpyrazin-2-yl)methyl)-3-phenyl-5,6,7,8-tetrahydroimidazo[1,5-a]pyrazine-1-carboxamide] | > 10000 nM |  | > 10000 nM | 
5 | CNC(=O)[C@@H](NC(=O)c1nc(-c2cccc(F)c2)n2c1CN(C)CCC2)C(C)(C)C [Compound 345, (S)-N-(3,3-dimethyl-1-(methylamino)-1-oxobutan-2-yl)-3-(3-fluorophenyl)-8-methyl-6,7,8,9-tetrahydro-5H-imidazo[1,5-a][1,4]diazepine-1-carboxamide] | > 10000 nM | + |  | 
6 | COC(=O)[C@@H](NC(=O)c1nc(-c2ccccc2)n2c1CN(C(C)C)CCC2)C(C)(C)C [Compound 468, (S)-methyl 2-(8-isopropyl-3-phenyl-6,7,8,9-tetrahydro-5H-imidazo[1,5-a][1,4]diazepine-1-carboxamido)-3,3-dimethylbutanoate] | > 10000 nM | − |  | 
7 | CNC(=O)[C@@H](NC(=O)c1nc(-c2ccccc2)n2c1CN(C(=O)OC(C)(C)C)CCC2)C(C)(C)C [Compound 312, (S)-tert-butyl 1-(3,3-dimethyl-1-(methylamino)-1-oxobutan-2-ylcarbamoyl)-3-phenyl-6,7-dihydro-5H-imidazo[1,5-a][1,4]diazepine-8(9H)-carboxylate] | > 10000 nM | − |  | 
8 | CNC(=O)[C@@H](NC(=O)c1nc(/C=C/COC)n2c1CN(C)CCC2)C(C)(C)C [Compound 398, (S,E)-N-(3,3-dimethyl-1-(methylamino)-1-oxobutan-2-yl)-3-(3-methoxyprop-1-enyl)-8-methyl-6,7,8,9-tetrahydro-5H-imidazo[1,5-a][1,4]diazepine-1-carboxamide] | > 10000 nM | + |  | 
9 | CNC(=O)[C@@H](NC(=O)c1nc(-c2ccc(C(C)=O)cc2)n2c1CN(C)CCC2)C(C)(C)C [Compound 415, (S)-3-(4-acetylphenyl)-N-(3,3-dimethyl-1-(methylamino)-1-oxobutan-2-yl)-8-methyl-6,7,8,9-tetrahydro-5H-imidazo[1,5-a][1,4]diazepine-1-carboxamide] | > 10000 nM |  | > 10000 nM | 
10 | C[C@@H](NC(=O)c1nc(-c2ccccc2)n2c1CN(C(=O)OC(C)(C)C)CC2)C1CCCCC1 [Compound 37, (R)-tert-butyl 1-(1-cyclohexylethylcarbamoyl)-3-phenyl-5,6-dihydroimidazo[1,5-a]pyrazine-7(8H)-carboxylate] | > 10000 nM | − |  | 
11 | CNC(=O)[C@@H](NC(=O)c1nc(-c2c(C)noc2C)n2c1CN(C)CCC2)C(C)(C)C [Compound 442, N-((S)-3,3-dimethyl-1-(methylamino)-1-oxobutan-2-yl)-3-(3,5-dimethylisoxazol-4-yl)-8-methyl-6,7,8,9-tetrahydro-5H-imidazo[1,5-a][1,4]diazepine-1-carboxamide] |  | + |  | +/− HCB1 [1]: +
12 | CN1CCn2c(-c3ccc(Cl)cc3F)nc(C(=O)NC3CCN(C(=O)OC(C)(C)C)CC3)c2C1 [Compound 209, tert-butyl 4-(3-(4-chloro-2-fluorophenyl)-7-methyl-5,6,7,8-tetrahydroimidazo[1,5-a]pyrazine-1-carboxamido)piperidine-1-carboxylate] | > 10000 nM |  | > 10000 nM | 
13 | CNC(=O)c1cccc(-c2nc(C(=O)N[C@H](C(=O)NC)C(C)(C)C)c3n2CCCN(C)C3)c1 [Compound 391, (S)-N-(3,3-dimethyl-1-(methylamino)-1-oxobutan-2-yl)-8-methyl-3-(3-(methylcarbamoyl)phenyl)-6,7,8,9-tetrahydro-5H-imidazo[1,5-a][1,4]diazepine-1-carboxamide] | > 10000 nM |  | > 10000 nM | 
14 | CNC(=O)[C@@H](NC(=O)c1nc(-c2ccccc2)n2c1CN(S(=O)(=O)c1ccc(F)cc1)CCC2)C(C)(C)C [Compound 464, (S)-N-(3,3-dimethyl-1-(methylamino)-1-oxobutan-2-yl)-8-(4-fluorophenylsulfonyl)-3-phenyl-6,7,8,9-tetrahydro-5H-imidazo[1,5-a][1,4]diazepine-1-carboxamide] | > 10000 nM | − |  | 
15 | CN1CCCn2c(-c3ccccc3)nc(C(=O)N[C@H](C(=O)NCC3CCOCC3)C(C)(C)C)c2C1 [Compound 479, (S)-N-(3,3-dimethyl-1-oxo-1-((tetrahydro-2H-pyran-4-yl)methylamino)butan-2-yl)-8-methyl-3-phenyl-6,7,8,9-tetrahydro-5H-imidazo[1,5-a][1,4]diazepine-1-carboxamide] | > 10000 nM | + |  | 
16 | CNC(=O)[C@H](CC(C)C)NC(=O)c1nc(C2CCCCC2)n2c1CN(C)CCC2 [Compound 540, (S)-3-cyclohexyl-8-methyl-N-(4-methyl1-1-(methylamino)-1-oxopentan-2-yl)-6,7,8,9-tetrahydro-5H-imidazo[1,5-a][1,4]diazepine-1-carboxamide] |  | + |  | EC50 [1, 3]: > 10000 nM
17 | CNC(=O)[C@H](CC(C)(C)C)NC(=O)c1nc(-c2ccc(Cl)cc2F)n2c1CN(C)CCC2 [Compound 544, (S)-3-(4-chloro-2-fluorophenyl)-N-(4,4-dimethyl-1-(methylamino)-1-oxopentan-2-yl)-8-methyl-6,7,8,9-tetrahydro-5H-imidazo[1,5-a][1,4]diazepine-1-carboxamide] |  | + |  | +/− HCB1 [1]: +
18 | CNC(=O)[C@@H](NC(=O)c1nc(-c2cnn(C)c2)n2c1CNCC2)C(C)(C)C [Compound 17, (S)-N-(3,3-dimethyl-1-(methylamino)-1-oxobutan-2-yl)-3-(1-methyl-1H-pyrazol-4-yl)-5,6,7,8-tetrahydroimidazo[1,5-a]pyrazine-1-carboxamide] |  |  |  | EC50 [1, 3]: > 10000 nM; EC50 ([2]; groups >100 nM-10 μM and >10 μM, cAMP, CHO-K1 rCB2, read-out: EC50 RCB2): > 10000 nM
19 | CC(C)(C)OC(=O)N1CCCn2c(-c3ccccc3)nc(C(=O)N[C@H](C(=O)O)C(C)(C)C)c2C1 [Compound 515, (S)-2-(8-(tert-butoxycarbonyl)-3-phenyl-6,7,8,9-tetrahydro-5H-imidazo[1,5-a][1,4]diazepine-1-carboxamido)-3,3-dimethylbutanoic acid] |  | − |  | EC50 [1, 3]: > 10000 nM
20 | CNC(=O)[C@@H](NC(=O)c1nc(-c2ccc(C)cc2Cl)n2c1CN(C)CCC2)C(C)(C)C [Compound 367, (S)-3-(2-chloro-4-methylphenyl)-N-(3,3-dimethyl-1-(methylamino)-1-oxobutan-2-yl)-8-methyl-6,7,8,9-tetrahydro-5H-imidazo[1,5-a][1,4]diazepine-1-carboxamide] | > 10000 nM |  | > 10000 nM | 
21 | Cc1noc([C@@H](NC(=O)c2nc(-c3ccccc3)n3c2CNCC3)C(C)(C)C)n1 [Compound 282, (S)-N-(2,2-dimethyl-1-(3-methyl-1,2,4-oxadiazol-5-yl)propyl)-3-phenyl-5,6,7,8-tetrahydroimidazo[1,5-a]pyrazine-1-carboxamide] | > 10000 nM |  | > 10000 nM | 
22 | CNC(=O)[C@@H](NC(=O)c1nc(Cc2ccccc2)n2c1CN(C)CCC2)C(C)(C)C [Compound 459, (S)-3-benzyl-N-(3,3-dimethyl-1-(methylamino)-1-oxobutan-2-yl)-8-methyl-6,7,8,9-tetrahydro-5H-imidazo[1,5-a][1,4]diazepine-1-carboxamide] | > 10000 nM | + |  | 
23 | CC(=O)N1CCn2c(-c3ccccc3)nc(C(=O)N[C@@H](C)c3ccccc3)c2C1 [Compound 172, (S)-7-acetyl-3-phenyl-N-(1-phenylethyl)-5,6,7,8-tetrahydroimidazo[1,5-a]pyrazine-1-carboxamide] | > 10000 nM | + |  | 
24 | CN1CCn2c(-c3ccccc3)nc(C(=O)N3CCOCC3)c2C1 [Compound 69, (7-methyl-3-phenyl-5,6,7,8-tetrahydroimidazo[1,5-a]pyrazin-1-yl)(morpholino)methanone] |  | − |  | EC50 [1, 3]: > 10000 nM
25 | CNC(=O)[C@@H](NC(=O)c1nc(-c2ccc(Cl)cc2F)n2c1CNCCC2)C(C)(C)C [Compound 315, (S)-3-(4-chloro-2-fluorophenyl)-N-(3,3-dimethyl-1-(methylamino)-1-oxobutan-2-yl)-6,7,8,9-tetrahydro-5H-imidazo[1,5-a][1,4]diazepine-1-carboxamide] | > 10000 nM |  | > 10000 nM | 
